The values that follow come from EP0310585B1, “Octapeptide inhibitors of myristoylating enzymes” (WASHINGTON UNIVERSITY, priority 1987, dated 1989).

Where no end group is shown, it is not given here.

The target in test [1] is T1, N-myristoylglycylpeptide synthetase (Saccharomyces cerevisiae, UniProt P14743).
T1 construct: A protease-deficient strain of Saccharomyces cerevisiae, JR153 [Hemmings et al., Proc. Natl. Acad. Sci. USA 78, 435-439 (1981)], was used as a source of N-myristoylglycylpeptide synthetase; endogenous in cells; host or cells: S. cerevisiae strain JR153, crude membrane pellet of cell lysate
T1 sequence (P14743 1-455): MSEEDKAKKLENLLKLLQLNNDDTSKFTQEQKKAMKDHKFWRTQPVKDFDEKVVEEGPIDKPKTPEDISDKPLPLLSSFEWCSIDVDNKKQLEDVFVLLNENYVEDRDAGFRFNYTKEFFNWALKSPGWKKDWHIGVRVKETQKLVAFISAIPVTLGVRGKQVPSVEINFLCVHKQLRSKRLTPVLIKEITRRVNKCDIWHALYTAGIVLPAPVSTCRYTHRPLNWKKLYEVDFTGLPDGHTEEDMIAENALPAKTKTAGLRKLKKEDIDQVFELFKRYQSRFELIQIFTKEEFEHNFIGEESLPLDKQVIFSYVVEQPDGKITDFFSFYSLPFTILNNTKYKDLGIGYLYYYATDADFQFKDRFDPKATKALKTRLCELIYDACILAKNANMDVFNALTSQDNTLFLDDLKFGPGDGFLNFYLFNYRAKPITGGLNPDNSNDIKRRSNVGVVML
Description: Assay for N-myristoylglycylpeptide synthetase activity, crude yeast membrane fractions (Table I). It counts as biochemical. Particulars: Test 3: + 1 mM peptide, 18 µM peptide substrate GlyAsnAlaAlaAlaAlaArgArg, control 26.7. How it is done:
Preparation of yeast extract for the assay of N-myristoylglycylpeptide synthetase activity. Yeast cultures were grown as described above to O.D. 660 nm of 1 to 3. Cells from 40 ml of culture were collected by centrifugation at 4°C at 7600 x g for 10 minutes. The supernatant was decanted, the cell pellet was resuspended by pipetting into 1 ml of cold 10 mM Tris, pH 7.4, transferred to a 1.5 ml conical polypropylene centrifuge tube, and the cells were then repelleted at 4°C at 7600 x g for 10 minutes. […] Protein was determined by the method of Peterson, Anal. Biochem. 83, 346-356 (1977).
Assay for N-myristoylglycylpeptide synthetase activity. […] Typically, 40% to 50% of the [³H]fatty acid was converted to its CoA ester by this procedure as measured by determining the radioactivity remaining in the reaction after acidification with 6 N HCl to pH 2.0 and extraction 6 times with 5 volumes of heptane, a modification of the method of Hosaka et al., Meth. […] (Under these conditions, 95% of synthetic [³H]myristoylpeptide or [³H]palmitoylpeptide remined soluble when added to an assay mixture.) Fifty microliters of the supernatant were mixed with 75 µl methanol and 75 µl of HPLC buffer A, and analyzed by reverse phase HPLC on a 3.9 mm by 30 cm Waters µ-Bondapak C₁₈ column using the same HPLC buffers described above, starting at 35% acetonitrile and eluting with a 1% per minute acetonitrile gradient. […]

Test [2] deals with T2, N-myristoylglycylpeptide synthetase (N-myristoyl transferase or NMT) (Saccharomyces cerevisiae, UniProt P14743).
T2 construct: endogenous in cells; host or cells: S. cerevisiae strain JR153
T2 sequence (P14743 1-455): T1 sequence (P14743 1-455)
The experiment in a line: Octapeptide substrate specificity / kinetic characterization with partially purified yeast myristoylating enzyme (Table II). The test is classed as biochemical. How it is done: The synthetic octapeptides I and II were initially used to identify a unique enzymatic activity which transfers myristic acid to the amino terminal glycine of this and other peptides. […] The enzyme activity was determined in an in vitro assay which measures the transfer of [³H]-myristic acid to the acceptor peptide, […]. The transfer reaction is dependent on adenosine triphosphate (ATP) and coenzyme A (CoA). The enzymatic product was then identified by high performance liquid chromatography (HPLC) by co-elution with a chemically synthesized myristoyl peptide standard. […] Both contained M-myristoyl glycine.
Assay for N-myristoylglycylpeptide synthetase activity. [³H]Fatty acyl CoA was synthesized enzymatically and added to the incubation as follows. […] Typically, 40% to 50% of the [³H]fatty acid was converted to its CoA ester by this procedure as measured by determining the radioactivity remaining in the reaction after acidification with 6 N HCl to pH 2.0 and extraction 6 times with 5 volumes of heptane, a modification of the method of Hosaka et al., Meth. […] One minute fractions were collected and the radioactivity in each fraction determined by liquid scintillation counting. […]

As for GPRP, the “Rate of Myristoylpeptide Synthesis” value in test [1] amounted to 25.6 DPM x 10⁻³ /10 min.
As to “GSSKSPKDPS [a decapeptide containing N-terminal glycine]”, the “Rate of Myristoylpeptide Synthesis” value in test [1] came out at 27.4 DPM x 10⁻³ /10 min.
In the case of “GNANSARR-NH2 [Gly-Asn-Ala-Asn-Ser-Ala-Arg-Arg]”, the affinity in test [2] corresponds to a Ki of 0.3 µM.
Turning to “GNAAKARR-NH2 [Gly-Asn-Ala-Ala-Lys-Ala-Arg-Arg]”, in test [2], the Ki (in general, the equilibrium dissociation constant of an inhibitor or competing ligand from its target) was found to be 50 µM.
